Values quoted from earlier work, collected in patent publication US8466198B2, “Compositions comprising creatine salts and methods of use thereof” (priority 2008, dated 2013).

Structure (SMILES)	average gain in athletic performance (creatine ingestion, depending on the measured variable)	increase in body mass (first week of loading)	improvement of maximal power/strength (short term supplementation)	improvement of single effort sprint performance (short term supplementation)	improvement of work performed during exercise of maximal effort muscle contractions (short term supplementation)	improvement of work performed during repetitive sprint performance (short term supplementation)
CN(CC(=O)O)C(=N)N [Creatine]	10 to 15%	–	–	–	–	–
CN(CC(=O)O)C(=N)N.O [creatine monohydrate]	–	1-2 kilograms	5-15%	1-5%	5-15%	5-15%
